In US20190105369A1, “CD31SHED AGONISTS FOR USE IN THE PREVENTION AND/OR TREATMENT OF REPERFUSION INJURY” (INSTITUT NATIONAL DE LA SANTE ET DE LA RECHERCHE MEDICAL …, priority 2016, published 2019):
“Also recorded” adds a separate entry of the source. Non-standard residues stand in square brackets, D forms with d. No end group written: not given here.

Key:
[1] = system: apolipoprotein E knockout mice; assay: Model of myocardial ischemia-reperfusion (coronary artery ligation 45 min, reperfusion 24 h); format: in vivo
Procedure: FIG. 2: Effect of P8RI (10 mg/Kg P8RI by subcutaneous injection, 2 minutes prior to reperfusion) on the area at risk and size of myocardial infarction in apolipoprotein E knockout mice (female, 18 week-old) subjected to 45 minutes of ischemia by ligation of the coronary artery, followed by 24 hours of reperfusion. […] P8RI: mice receiving P8RI (n=5); Control: mice receiving a similar volume of vehicle (PBS) without P8RI (n=5). T-Test.
In order to reproduce the ischemia-reperfusion injury in the setting of coronary atherosclerosis (as it occurs in patients) were used 18 week-old female apolipoprotein E knockout mice (N=12/group) which typically develop coronary atherosclerosis by the age of 16 week (Caligiuri et al., Atherosclerosis. 1999 August;145(2):301-8). Mice were subjected to surgical ligation of the left main coronary artery, according to the method described by Michael et al. (Am J Physiol. 1995 December;269(6 Pt 2):H2147-54). After 43 minutes of ischemia, the mice received either P8RI (10 mg/kg) or the vehicle (PBS) by subcutaneous injection and 2 minutes later the ischemic area was reperfused by reopening of the ligated coronary artery. The next day, the mice were re-anesthetized, the chest reopened and the coronary ligature re-tied; the coronary tree was then rinsed with 2 ml of PBS pushed in the coronary tree through retrograde cannulation of the left carotid artery and the non-ischemic area stained by the injection of 50 μl of evan's blue (3% in PBS) in the same cannula. The heart was then quickly removed from the chest and immersed in a saturated KCl solution (to stop the heart in diastole) and rinsed in PBS. […] Each slice was photographed and the area at risk (AAR, negatively stained by the evan's blue) and the necrotic area (MI, negatively stained in red by the TTC solution) were then measured by computer-assisted image analysis.
The AAR, expressed as % of the left ventricle (LV) surface and the necrotic area (MI, expressed as percentage of the AAR and of the LV) were calculated on each slice. The data shown in FIG. 2 are expressed as mean±SEM.

human platelet = conditions: cited from earlier work
Rats = assay: Model of mesenteric ischemia-reperfusion (mesenteric artery clamped 30 minutes, reperfusion 4 hours); format: in vivo
Procedure: Rats are anesthetized by urethane I.P. A catheter is introduced in the right jugular vein for venous sampling, treatment administration, and solute perfusion (NaCl 0.9%, 10 μl/H/g b.w.) during all the experimental period. A catheter is introduced in the left internal carotid artery for arterial blood pressure monitoring and another one in the bladder for urine collection. […] The aortic ostium of the mesenteric artery is controlled. The intravenous administration of the peptide is initiated 5 minutes before clamping the mesenteric artery and after blood sampling (T0). Then, the mesenteric artery is clamped (total occlusion) for 30 minutes creating mesenteric ischemia. Blood sampling is performed at the end of the mesenteric ischemia period (T0.5). The mesenteric artery is then unclamped and reperfusion is follow-up to 4 hours. New blood samplings are performed each hour (T1.5, 2.5, 3.5, 4.5). The animal is sacrificed at the end of the experimental period after a last blood sampling. Urines are collected and diuresis measured each hour. At sacrifice, the ischemic intestine is sampled. One fragment is extruded in order to measure hemoglobin content. The other one is fixed in paraformaldehyde for histology. Several intermediary biological criteria are use in order to characterize the ischemia-reperfusion injury and to evaluate the beneficial effect of the CD31^shed agonist peptide: plasma and urinary free DNA (Picogreen fluorescent intercalant, Invitrogen), from neutrophil origin, traducing neutrophil activation and death, intra-intestinal lumen hemoglobin content (acid formic reaction, Calbiochem kit), traducing epithelial injury, Myeloperoxidase (MPO) content in the intestinal mucosa, reflecting the local accumulation and activation of neutrophils, plasma soluble p-selectin and MMP9 content, reflecting systemic neutrophil activation, as p-selectin is released by a cleavage from the surface of activated neutrophils (and platelets) and MMP9 is contained in the azurofilic granules of the neutrophils and is released early upon neutrophil degranulation. Finally, the extent of mucin film protection was evaluated by histology of the intestinal wall (Alcian blue staining).

thrombin generation = conditions: cited from earlier work
[2] = 10 mg/kg subcutaneous, 2 minutes prior to reperfusion, 24 hours of reperfusion, vs vehicle (PBS)
[3] = intravenous perfusion, vs controls
[4] = mesenteric artery transient occlusion model

kwpalfvr ([dK][dW][dP][dA][dL][dF][dV][dR]) [Peptide P8RI, CD31shed agonist]
size of myocardial infarction (MI) as percentage of the area at risk (AAR) [1, 2]: significantly effective in reducing | size of myocardial infarction (MI) as percentage of the left ventricle (LV) [1, 2]: significantly effective in reducing | size of the necrotic areas ([1]; administration during the ischemia-reperfusion period, vs non-treated control mouse): strongly decrease | human platelet aggregation (human platelet): reduces | hemoglobin content in the intestine lumen (Rats; intravenous perfusion, at sacrifice, controls 317.1±93.27): 129.4±47.39 μg/mg prot | epithelial villosity abrasion, epithelium desquamation (Rats; intravenous perfusion, histology): protect | mucin / mucus film integrity (histology of the intestinal wall, Alcian blue staining) (Rats; intravenous perfusion, vs control rats, data not shown): histological conservation of mucus; also recorded: preserved most of the mucin film | free hemoglobin within the intestinal lumen (ratio, normalized by total protein content) (Rats; [3]): decreased | free myeloperoxidase MPO in the intestinal mucosa (direct ELISA, optical density) (Rats; [3]): decreased; also recorded: significantly decrease | plasma MMP9, cumulative concentration (area under the curve of the different time points) (Rats; [3]): decreased; also recorded: significantly decrease | free DNA in the plasma over time (Rats; intravenous, initiated 5 minutes before clamping, vs control rats): arrest of the progressive increase; also recorded: remains low and similar to sham-operated rats; also recorded: significantly reduces the progressive increase | urinary free DNA (Rats; intravenous, initiated 5 minutes before clamping, vs controls): reduced; also recorded: significantly reduces the progressive increase | LPS secretion in blood (Rats; [4]): decrease | bacterial translocation (Rats; [4]): prevented | intestinal necrosis (Rats; [4]): prevented | thrombin generation (thrombin generation): reduces
